Where a SMILES comes first, the peptide text is derived from it. [ ]: non-standard residue; d: D form. The star is where a group is joined. Palmitoyl = CCCCCCCCCCCCCCCC(=O)*; Nle = CCCC[C@H](N)C(=O)O
Target: T1, CRF1 (Homo sapiens, UniProt P34998)
T1 construct: endogenously expresses functional CRF1; endogenous in cells; host or cells: Y-79 human retinoblastoma cells
T1 sequence (P34998 24-415): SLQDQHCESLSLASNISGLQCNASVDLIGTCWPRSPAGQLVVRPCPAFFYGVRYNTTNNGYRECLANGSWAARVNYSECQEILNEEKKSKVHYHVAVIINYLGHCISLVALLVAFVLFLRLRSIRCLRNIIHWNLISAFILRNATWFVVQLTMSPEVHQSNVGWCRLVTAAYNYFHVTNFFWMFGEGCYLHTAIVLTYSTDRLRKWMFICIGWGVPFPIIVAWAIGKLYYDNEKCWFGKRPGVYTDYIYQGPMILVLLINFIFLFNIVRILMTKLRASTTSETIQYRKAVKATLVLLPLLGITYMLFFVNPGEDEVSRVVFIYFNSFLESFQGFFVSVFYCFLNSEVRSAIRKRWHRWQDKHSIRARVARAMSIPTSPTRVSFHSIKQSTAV
Assay: CRF1 assessment of cAMP (HTRF cAMP assay) in Y-79 cells, antagonist mode
Assay type: cell-based
Conditions: Y79 cells; for IC50: CRF1 cAMP screening, against agonist; for inhibition at 0.3 µM: 300 nM pepducin against agonist dose response, read-out: % Inhibition (± SD)
Text: HTRF (homogeneous time resolved fluorescence) is a technology developed by Cisbio Bioassays based on TR-FRET (time-resolved fluorescence resonance energy transfer). Cisbio Bioassays has developed a wide selection of HTRF-based assays compatible with whole cells, thereby enabling functional assays run under more physiological conditions. cAMP kits are based on a competitive immunoassay using cryptate-labeled anti-cAMP antibody and d2-labeled cAMP. This assay allows the measurement of increase in intracellular cAMP upon Gs-coupled receptor activation as well as decrease in forskolin stimulated increase in cAMP upon Gi-coupled receptor activation. Cells expressing CRF1 endogenously or via transfection can be used to assess compound pharmacology using cAMP assays as a means to measure the activity of adenylyl cyclase resulting from CRF1 activation or inhibition.
An example of the use of the cAMP assay can be assessing CRF activation of CRF1 in Y-79, a human retinoblastoma cell line which endogenously expresses functional CRF1. Y-79 cells were seeded into 96-well half area black plates at 30K/well in Hank's balanced salt solution with 50 mM HEPES, 0.1% BSA, 200 uM IBMX. Compounds to be tested for agonist activity were added to cells, incubated for 30 minutes at 37 degrees C. and assayed for cAMP concentration. To test for antagonist activity, compounds to be tested were added to cells, followed by the addition of agonist at an experimentally determined optimal concentration, generally the EC80. Plates were incubated for 30 minutes at 37 degrees C. and assayed for cAMP. To determine concentration of cAMP in each well, d2-labeled cAMP in Conjugate/Lysis buffer was added to wells. This addition lysed the cells and input a known concentration of labeled cAMP. This was followed by the addition of anti-cAMP antibody conjugated to cryptate. FRET occurs when cryptate-labeled antibody binds to d2-labeled cAMP. Therefore, the specific signal is inversely proportional to the concentration of cAMP in the sample. Conversion of signal to concentration of cAMP in the well was accomplished by comparing the FRET signal of sample to a standard curve generated using known concentrations of cAMP.

IC50 | inhibition at 0.3 µM | Structure (SMILES)
0.501 to 1 µM | 40% | CCCCCCCCCCCCCCCC(=O)N[C@@H](CCCNC(=N)N)C(=O)N[C@@H](CC(C)C)C(=O)N[C@@H](CCCNC(=N)N)C(=O)N[C@@H](CCCCN)C(=O)N[C@@H](Cc1c[nH]c2ccccc12)C(=O)N[C@@H](CCSC)C(=O)N[C@@H](C)C(=O)N[C@H](C(N)=O)[C@@H](C)CC [Compound 41] (Palmitoyl-RLRKWMAI-NH2)
5 to 10 µM | 65% | CCCCCCCCCCCCCCCC(=O)N[C@@H](CC(=O)O)C(=O)N[C@@H](CCCNC(=N)N)C(=O)N[C@@H](CC(C)C)C(=O)N[C@@H](CCCNC(=N)N)C(=O)N[C@@H](CCCCN)C(=O)N[C@@H](Cc1c[nH]c2ccccc12)C(=O)N[C@@H](CCSC)C(=O)N[C@@H](C)C(=O)N[C@H](C(N)=O)[C@@H](C)CC [Compound 42] (Palmitoyl-DRLRKWMAI-NH2)
> 10 µM | 58% | CCCCCCCCCCCCCCCC(=O)N[C@H](C(=O)N[C@@H](CC(=O)O)C(=O)N[C@@H](CCCNC(=N)N)C(=O)N[C@@H](CC(C)C)C(=O)N[C@@H](CCCNC(=N)N)C(=O)N[C@@H](CCCCN)C(=O)N[C@@H](C)C(=O)N[C@@H](CCSC)C(=O)N[C@@H](Cc1ccccc1)C(=O)N[C@H](C(N)=O)[C@@H](C)CC)[C@@H](C)O [Compound 50] (Palmitoyl-TDRLRKAMFI-NH2)
1 to 5 µM | 55 ± 13% | CCCCCCCCCCCCCCCC(=O)NCC(=O)N[C@@H](CO)C(=O)N[C@H](C(=O)N[C@@H](CCCNC(=N)N)C(=O)N[C@@H](C)C(=O)N[C@@H](CCCNC(=N)N)C(=O)N[C@H](C(=O)N[C@@H](C)C(=O)N[C@@H](CCCNC(=N)N)C(=O)N[C@@H](C)C(=O)N[C@@H](CCSC)C(N)=O)C(C)C)[C@@H](C)CC [Compound 64] (Palmitoyl-GSIRARVARAM-NH2)
0.501 to 1 µM | 61 ± 20% | CCCCCCCCCCCCCCCC(=O)NCC(=O)N[C@@H](CO)C(=O)N[C@H](C(=O)N[C@@H](CC(=O)O)C(=O)N[C@@H](CCCNC(=N)N)C(=O)N[C@@H](CC(C)C)C(=O)N[C@@H](CCCNC(=N)N)C(=O)N[C@@H](CCCCN)C(=O)N[C@@H](C)C(=O)N[C@@H](CCSC)C(=O)N[C@@H](Cc1ccccc1)C(=O)N[C@H](C(N)=O)[C@@H](C)CC)[C@@H](C)O [Compound 40] (Palmitoyl-GSTDRLRKAMFI-NH2)
1 to 5 µM | 60 ± 8% | CCCCCCCCCCCCCCCC(=O)NCC(=O)N[C@@H](CO)C(=O)N[C@H](C(=O)N[C@@H](CC(=O)O)C(=O)N[C@@H](CCCNC(=N)N)C(=O)N[C@@H](CC(C)C)C(=O)N[C@@H](CCCNC(=N)N)C(=O)N[C@@H](CCCCN)C(=O)N[C@@H](Cc1c[nH]c2ccccc12)C(=O)N[C@@H](CCSC)C(=O)N[C@@H](C)C(=O)N[C@H](C(N)=O)[C@@H](C)CC)[C@@H](C)O [Compound 38] (Palmitoyl-GSTDRLRKWMAI-NH2)

Further lines, the compound ahead of its results:

Structure (SMILES) | IC50 | inhibition at 0.3 µM
CCCCCCCCCCCCCCCC(=O)N[C@@H](Cc1ccc(O)cc1)C(=O)N[C@@H](CO)C(=O)N[C@H](C(=O)N[C@@H](CC(=O)O)C(=O)N[C@@H](CCCNC(=N)N)C(=O)N[C@@H](CC(C)C)C(=O)N[C@@H](CCCNC(=N)N)C(=O)N[C@@H](CCCCN)C(=O)N[C@@H](Cc1c[nH]c2ccccc12)C(=O)N[C@@H](CCSC)C(=O)N[C@@H](Cc1ccccc1)C(=O)N[C@H](C(N)=O)[C@@H](C)CC)[C@@H](C)O [Compound 34] (Palmitoyl-YSTDRLRKWMFI-NH2) | 0.501 to 1 µM | 21 ± 5%
CCCCCCCCCCCCCCCC(=O)NCC(=O)N[C@@H](CO)C(=O)N[C@H](C(=O)N[C@@H](CC(=O)O)C(=O)N[C@@H](CCCNC(=N)N)C(=O)N[C@@H](CC(C)C)C(=O)N[C@@H](CCCNC(=N)N)C(=O)N[C@@H](CCCCN)C(=O)N[C@@H](Cc1c[nH]c2ccccc12)C(=O)N[C@@H](CCSC)C(=O)N[C@@H](Cc1ccccc1)C(=O)N[C@H](C(N)=O)[C@@H](C)CC)[C@@H](C)O [Compound 29, Pal-GSTDRLRKWMFI-amide] (Palmitoyl-GSTDRLRKWMFI-NH2) | 0.501 to 1 µM | 53 ± 14%
CCCCCCCCCCCCCCCC(=O)N[C@@H](CO)C(=O)N[C@H](C(=O)N[C@@H](CC(=O)O)C(=O)N[C@@H](CCCNC(=N)N)C(=O)N[C@@H](CC(C)C)C(=O)N[C@@H](CCCNC(=N)N)C(=O)N[C@@H](CCCCN)C(=O)N[C@@H](Cc1c[nH]c2ccccc12)C(=O)N[C@@H](CCSC)C(=O)N[C@@H](Cc1ccccc1)C(=O)N[C@H](C(N)=O)[C@@H](C)CC)[C@@H](C)O [Compound 33] (Palmitoyl-STDRLRKWMFI-NH2) | 1 to 5 µM | 36 ± 9%
CCCCCCCCCCCCCCCC(=O)N[C@H](C(=O)N[C@@H](CC(=O)O)C(=O)N[C@@H](CCCNC(=N)N)C(=O)N[C@@H](CC(C)C)C(=O)N[C@@H](CCCNC(=N)N)C(=O)N[C@@H](CCCCN)C(=O)N[C@@H](Cc1c[nH]c2ccccc12)C(=O)N[C@@H](CCSC)C(=O)N[C@@H](Cc1ccccc1)C(=O)N[C@H](C(N)=O)[C@@H](C)CC)[C@@H](C)O [Compound 32, Pal-TDRLRKWMFI-amide] (Palmitoyl-TDRLRKWMFI-NH2) | 0.501 to 1 µM | 53 ± 9%
CCCCCCCCCCCCCCCC(=O)N[C@H](C(=O)N[C@@H](CC(=O)O)C(=O)N[C@@H](CCCNC(=N)N)C(=O)N[C@@H](CC(C)C)C(=O)N[C@@H](CCCNC(=N)N)C(=O)N[C@@H](CCCCN)C(=O)N[C@@H](Cc1c[nH]c2ccccc12)C(=O)N[C@@H](CCCC)C(=O)N[C@@H](Cc1ccccc1)C(=O)N[C@H](C(N)=O)[C@@H](C)CC)[C@@H](C)O [Compound 54] (Palmitoyl-TDRLRKW[Nle]FI-NH2) | – | 55 ± 7%
CCCCCCCCCCCCCCCC(=O)N[C@H](C(=O)N[C@@H](CC(=O)O)C(=O)N[C@@H](C)C(=O)N[C@@H](CC(C)C)C(=O)N[C@@H](CCCNC(=N)N)C(=O)N[C@@H](CCCCN)C(=O)N[C@@H](Cc1c[nH]c2ccccc12)C(=O)N[C@@H](CCSC)C(=O)N[C@@H](Cc1ccccc1)C(=O)N[C@H](C(N)=O)[C@@H](C)CC)[C@@H](C)O [Compound 46] (Palmitoyl-TDALRKWMFI-NH2) | > 10 µM | 58%
CCCCCCCCCCCCCCCC(=O)N[C@@H](C)C(=O)N[C@@H](CO)C(=O)N[C@H](C(=O)N[C@H](C(=O)N[C@@H](CO)C(=O)N[C@@H](CCC(=O)O)C(=O)N[C@H](C(=O)N[C@H](C(=O)N[C@@H](CCC(N)=O)C(=O)N[C@@H](Cc1ccc(O)cc1)C(=O)N[C@@H](CCCNC(=N)N)C(=O)N[C@@H](CCCCN)C(=O)N[C@@H](C)C(=O)N[C@H](C(=O)N[C@@H](CCCCN)C(=O)N[C@@H](CO)C(N)=O)C(C)C)[C@@H](C)CC)[C@@H](C)O)[C@@H](C)O)[C@@H](C)O [Compound 62] (Palmitoyl-ASTTSETIQYRKAVKS-NH2) | 1 to 5 µM | 50%
CCCCCCCCCCCCCCCC(=O)NCC(=O)N[C@@H](CO)C(=O)N[C@H](C(=O)N[C@@H](CC(=O)O)C(=O)N[C@@H](CCCNC(=N)N)C(=O)N[C@@H](CC(C)C)C(=O)N[C@@H](CCCNC(=N)N)C(=O)N[C@@H](CCCCN)C(=O)N[C@@H](Cc1c[nH]c2ccccc12)C(=O)N[C@@H](CCSC)C(=O)N[C@@H](Cc1ccccc1)C(=O)N[C@@H](C)C(N)=O)[C@@H](C)O [Compound 37] (Palmitoyl-GSTDRLRKWMFA-NH2) | 1 to 5 µM | 45 ± 19%
CCCCCCCCCCCCCCCC(=O)N[C@H](C(=O)N[C@@H](CC(=O)O)C(=O)N[C@@H](CCCNC(=N)N)C(=O)N[C@@H](CC(C)C)C(=O)N[C@@H](CCCNC(=N)N)C(=O)N[C@@H](CCCCN)C(=O)N[C@@H](Cc1c[nH]c2ccccc12)C(=O)N[C@@H](CCSC)C(=O)N[C@@H](Cc1ccccc1)C(=O)N[C@@H](C)C(N)=O)[C@@H](C)O [Compound 52] (Palmitoyl-TDRLRKWMFA-NH2) | > 10 µM | 70%
CCCCCCCCCCCCCCCC(=O)N[C@H](C(=O)N[C@@H](C)C(=O)N[C@@H](CCCNC(=N)N)C(=O)N[C@@H](CC(C)C)C(=O)N[C@@H](CCCNC(=N)N)C(=O)N[C@@H](CCCCN)C(=O)N[C@@H](Cc1c[nH]c2ccccc12)C(=O)N[C@@H](CCSC)C(=O)N[C@@H](Cc1ccccc1)C(=O)N[C@H](C(N)=O)[C@@H](C)CC)[C@@H](C)O [Compound 45] (Palmitoyl-TARLRKWMFI-NH2) | > 10 µM | 70%

Source: patent US20110301087A1, “CRF1 RECEPTOR COMPOUNDS” (priority 2008, published 2011)
